Patent publication US9920092B1, “Composition having anti-oxidant, anti-aging, and autophagy activities and uses thereof” (Incospharm Corporation, priority 2017, dated 2018)

Tests used:
[1] = ABTS radical scavenging assay (in-vitro anti-oxidant activity); type: biochemical; details: absorbance at OD734 after 30 minutes; FIG. 3
Method: In order to measure in-vitro anti-oxidant activity of the compound represented by Structural Formula according to the present invention, ABTS radical scavenging assay was performed. When 2,2′-azino-bis-(3-ethylbenzothiazoline-6-sulfonic acid (ABTS) reacts with potassium persulfate, ABTS^+, which is an active cation, is formed, but in the case in which an anti-oxidant material is present in a test sample, ABTS^+ is removed by anti-oxidant activity, a greenish blue color, which is a peculiar color of ABTS^+, is decolorized, which may be measured as an absorbance value, thereby making it possible to evaluate the anti-oxidant activity.
As a specific experimental method, after mixing ABTS diammonium salt (7 mM) and potassium persulfate (2.45 mM) with each other in distilled water in order to activate stabilized ABTS diammonium salt, a reaction was carried out at room temperature for 16 hours, thereby forming an ABTS radical. After diluting the resultant in a phosphate buffer solution (PBS) to prepare a reaction solution so that an OD734 value was about 1.5, the reaction solution was mixed with vitamin C (Vit C), pyrrolidone carboxylic acid (PCA), or the compound represented by Structural Formula 1 disclosed in the present invention to induce a reaction. After 30 minutes, an amount of the remaining activated ABTS radical was analyzed by measuring absorbance at OD734.

[2] = test system: human epidermal keratinocyte cells; assay: Intracellular ROS by DCFH-DA dye and FACS scanning after H2O2; type: cell-based; details: 100 uM pre-treatment for 48 hours, 10 uM H2O2 10 minutes, FIG. 4
Method: In order to measure an intercellular anti-oxidant activity of the compound represented by Structural Formula 1 according to the present invention, an amount of intracellular reactive oxygen species (ROS) was measured using 6-carboxy-2′,7′-dichlorofluorescein diacetate (DCFH-DA) dye and fluorescence activated cell sorter (FACS) scanning.
As a specific experimental method, human epidermal keratinocyte cells (Gibco BRL) were uniformly seeded onto a 600 culture dish (3×10^5 cells/dish) and cultured in an epilife medium (Gibco BRL) containing human keratinocyte growth supplement (HKGS, Gibco BRL) at 37° C. in a 5% CO2 incubator for 24 hours. Thereafter, the test materials (H2O2, vitamin C, and the compound represented by Structural Formula 1) were each dissolved in water at a concentration of 10 mM to prepare a concentrate, the prepared concentrate was diluted so as to have a concentration of 100 uM using the medium and put into a culture dish to treat the cells. Then, culturing was performed for 48 hours, and after the culturing was terminated, the medium was removed and the resultant was washed, thereby preparing a subsequent experiment. Next, 10 uM hydrogen peroxide was added thereto, the culturing was performed for 10 minutes, the resultant was washed again. […]

[3] = test system: human epidermal keratinocyte cells; assay: LC3 puncta assay (confocal microscope); type: cell-based; details: 100 uM, 48 hours, anti-LC3 immunostaining; FIG. 7
Method: As a specific experimental method, after 200 ul of poly-L-lysine (sigma) was put into each well of a 15 ul slide glass (Ibidi) and a reaction was carried out at room temperature for 30 minutes, followed by coating, human epidermal keratinocyte cells (Gibco BRL) were cultured and treated with respective test materials (rapamycin, compound represented by Structural Formula 1, and vitamin C) at a concentration of 100 uM. After the culturing for 48 hours was terminated, a medium was removed, and the cultured cells were fixed and blocked using formalin. Thereafter, the cells were labeled with anti-LC3 (Abfrontier) and anti-rabbit IgG-FITC (sigma), nucleus was stained with 4′,6′-diamidine-2′-phenylindole dihydrochloride (DAPI), and then, whether or not a puncta was formed in the cells was confirmed using a confocal microscope.

[4] = test system: human epidermal keratinocyte cells; assay: Cell protection effect against H2O2 oxidative stress (MTT); type: cell-based; details: then 1 mM H2O2 4 hours
Method: Through the results in Examples 2 to 6, it was confirmed that expression of the anti-oxidant proteins and the autophagy-related proteins in cells was increased by the compound represented by Structural Formula 1, and thus, autophagy in the cells was activated. Therefore, in order to confirm whether or not activation of autophagy as described above may protect cells from cytotoxicity caused by ROS, follow-up research into a cell protection effect was conducted.
As a specific experiment method, after treating human epidermal keratinocyte cells (Gibco BRL) with respective test materials (vitamin C and the compound represented by Structural Formula 1) at 0.1 mM or 1 mM, respectively, while culturing the cells in a 96-well culture dish, the cells were cultured for 24 hours or 48 hours, the resultant was washed, and 1 mM H2O2 was added thereto, and additional culturing was performed for 4 hours. Thereafter, each of the wells was washed, 10 ul of 3-(4,5-dimethylthiazol-2-yl)-2,5-diphenyltetrazolium bromide (MTT) dissolved in PBS (5 mg/ml) was added to each of the wells, and a reaction was carried out at 37° C. under a 5% CO2 condition. Thereafter, a supernatant was carefully removed, MTT formazan precipitated in the cells was dissolved in 100 ul of DMSO, and then absorbance at OD570 was measured using an enzyme-linked immunosorbent assay (ELISA) reader.

[5] = test system: genes associated with anti-oxidation and autophagy; assay: cDNA microarray of genes associated with anti-oxidation and autophagy; type: cell-based
Method: (§1) In order to find a cause of increasing an intracellular anti-oxidant activity by treatment with the compound represented by Structural Formula 1, cDNA microarray was performed, thereby confirming that transcription of several kinds of important genes associated with anti-oxidation and autophagy was increased. Proteins for the selected genes were quantified by western blot.

[6] = test system: human epidermal keratinocyte cells; assay: Western blot of anti-oxidant and autophagy-related protein expression; type: cell-based; details: 50, 100, or 200 um, 48 hours
Method: as §1
As a specific experimental method, after treating human epidermal keratinocyte cells (Gibco BRL) with the compound represented by Structural Formula 1 at a concentration of 50, 100, or 200 um while culturing the cells in a 600 culture dish, culturing was performed for 48 hours. After the culturing was terminated, a medium was removed, a RIPA lysis buffer containing protease inhibitor cocktail (2 ug/ml aprotinin, 5 ug/ml leupeptin, 1 ug/ml pepstatin A, 1 mM PMSF, 5 mM EDTA and 1 mM EGTA) was added thereto, thereby obtaining an entire cell homogenate. Thereafter, total proteins were quantified through microBCA assay (SMART micro BCA protein assay kit, Intron biotechnology), the cell homogenate (10 to 20 ug) was loaded on a SDS-PAGE gel, and respective proteins were isolated by electrophoresis and moved to a nitrocellulose membrane. […]

[7] = test system: human dermal fibroblast cells; assay: Electron microscopy assay of autophagy structures; type: cell-based; details: 50 uM, 24 hours; FIGS. 8 and 9
Method: As a specific experimental method, after treating human dermal fibroblast cells with the compound represented by Structural Formula 1 at a concentration of 50 uM while culturing the cells, the culturing was performed for 24 hours. After the culturing was terminated, the cells were fixed, a paraffin block was prepared, and then, cell images were analyzed using an electron microscope.
An autophagy pathway starts from formation of an isolated precursor membrane having a cup shape, referred to as phagophore. The phagophore may form a double membrane […] known as autophagosome through initiation, nucleation, elongation, and closure processes. The autophagosome carries condensed proteins, organelles or pathogenic bacteria in damaged cells to lysosome in a captured state, and fused with lysosome to form autophagolysosome. The autophagolysosome decomposes the captured constituents in an acidic environment mediated by acid hydrolase.

| Compound | scavenging activity on the activated ABTS radical [1] | amount of intracellular ROS formed by treatment with H2O2 [2] | formation of LC3 puncta in the cells [3] | cell viability ([4]; 1 mM, pre-treatment for 24 hours, FIG. 10) | cell viability ([4]; 1 mM, pre-treatment for 48 hours, FIG. 11) | viability at 100 µM ([4]; Homo sapiens, Keratinocyte, 0.1 mM, pre-treatment for 24 hours, FIG. 10) | transcription of genes associated with anti-oxidation and autophagy [5] | expression of proteins having high anti-oxidant activities (Prx2 monomer, Prx3, HSP70 based Grp75, HSP90B1, EPHX2, stanniocalcin2) ([6]; FIG. 5) | expression of proteins important in autophagy and detoxification activities (BiP, FoxO1, sirtuin5) ([6]; FIG. 6) | number of autophagolysosome [7] | number of autophagosome (increase by treatment) [7] | number of phagophore [7] | cell viability ([4]; 0.1 mM or 1 mM, pre-treatment for 24 hours, FIG. 10) | cell viability ([4]; 0.1 mM or 1 mM, pre-treatment for 48 hours, FIG. 11) |
| --- | --- | --- | --- | --- | --- | --- | --- | --- | --- | --- | --- | --- | --- | --- |
| O=C1O[C@H]([C@@H](O)CO)C(O)=C1O [vitamin C, reference compound] | concentration-dependent scavenging activity | not decreased | not increased | rather deteriorated | rather deteriorated | ~95% |  |  |  |  |  |  |  |  |
| O=C(O)CN(CCCC[C@H](NC(=O)[C@H](CCCCN(CC(=O)O)CC(=O)O)N(CC(=O)O)CC(=O)O)C(=O)O)CC(=O)O [2-[2,6-bis-(bis-carboxymethyl-amino)-hexanoyl-amino]-6-(bis-carboxymethyl-amino)-hexanoic acid] | concentration-dependent scavenging activity | almost disappeared | a large amount of a LC puncta |  |  |  | increased | increased | increased | significantly increased | ≥ 2 times | significantly increased | improved | improved |
